What was measured:
[1] = test system: MDA-MB-231 (breast); assay: Cell viability, crystal violet assay, MDA-MB-231; format: cell-based, human; details: for IC50: MDA-MB-231 (breast), 4,000 cells/well, treated 72 h, mean ± SD (n = 3)
From the text: The plates were washed with water and dried again.

[2] = test system: A2780 (ovarian); details: A2780 (ovarian), 4,000 cells/well, treated 72 h, mean ± SD (n = 3)
Procedure: (§1) All cell lines (OVCAR8, A2780, H460, and MDA-MB-231) were cultivated in RPMI or DMEM supplemented with 10% FBS, 1% penicillin/streptomycin, and 1% amphotericin. All cells were grown at 310K in a humidified atmosphere containing 5% CO2.
(§2) Various established human ovarian, lung, and breast cancer cell lines were seeded in 96-well plates (4000 cells/well) and were incubated with RPMI 1640 or DMEM (100 μL) supplemented with 10% FBS, 1% penicillin/streptomycin, and 1% amphotericin for 24 h and at 37° C. They were then treated with AuPhos compounds at increasing concentrations for 72 h from stock solutions following serial dilutions, in which AuPhos stock solutions were prepared in DMSO/media mixture (% v/v=20:80). Thereafter, cellular viability was assessed via the established crystal violet colorimetric assay. In brief, cells were fixed with 50 μL of a 1% glutaraldehyde solution and placed in an incubator (37° C., 5% CO2) for 1 hour. The plates were washed with water by running them under a gentle flow of tap water. The plates were air-dried, and crystal violet reagent was added to each well and allowed to incubate at room temperature for 20 min. The plates were washed with water and dried again. Methanol (200 μL/well) was added to each well, and the measurements of absorbance were subsequently performed using a Biotek Synergy H1 Plate Reader at 570 nm (peak absorbance).

[3] = test system: H460 (lung); details: H460 (lung), 4,000 cells/well, treated 72 h, mean ± SD (n = 3)
Procedure: as §1, §2

[4] = test system: OVCAR8 (ovarian); details: OVCAR8 (ovarian), 4,000 cells/well, treated 72 h, mean ± SD (n = 3)
Procedure: as §1, §2

[5] = test system: 4T1 tumor; assay: In vivo comparative experiment of AuPhos-89 and cisplatin, 4T1, IP; parameters: species or system BALB/c mice
Procedure: Mice were implanted with 2,000,000 4T1 cells subcutaneously on their flanks. […] The control group was injected with a PBS solution containing 1.5% DMSO and 12% Kolliphor. Injection and tumor-size/body-weight measurement was performed three days a week.
Mice organs (heart, lung, liver, kidney, spleen, and tumor) were fixed in freshly prepared paraformaldehyde (4% in PBS), the fixation time was 24 hours. And those processed for paraffin sectioning. The organs sections of 5 μm were stained with H&E staining and used for histological examination of the organs and tumor. A total of 5 sections per tissues (spanning the full depth of the organ) were examined and photographed using a Nikon Eclipse 55i microscope. […]

[6] = test system: MDA-MB-231 cells; details: 2 mM for 3 h, FACS
Procedure: MDA-MB-231 cells were seeded at a density of 5×10^5 cells/well in a 6-well clear bottom plate with a final media volume of 2 mL. The cells were allowed to adhere overnight at 37° C. A stock of AuPhos-89 was prepared fresh in DMSO/DMEM (% v/v=20:80) and added to the desired well at a concentration of 1 μM with a final volume of 2.5 mL and incubated for 15 h at 37° C. A stock of H2O2 was prepared in PBS and the cells treated at a final concentration of 2 mM for 3 hours and used as positive control. When ready for analysis, medium was removed and the wells washed with 5 mL of PBS. The cells were trypsinized (1 mL), 5 mL of DMEM were added to each well, and total volume collected and centrifuged to pellet the cells. The cells were resuspended in 2 mL of fresh media, counted, and reconstituted to a concentration of 1×10^5 cells/mL. The cells were centrifuged again, and the pellet suspended in 500 μL of Annexin binding buffer. To each sample was added 5 μl of Annexin V-FITC and 5 μl PI and incubated in the dark at room temperature for 5 minutes. The samples were then subjected to FACS analysis.

For `c1ccc(P(c2ccccc2)c2ccccc2P(c2ccccc2)c2ccccc2)cc1` [1,2-Bis(diphenylphosphino)benzene, reference compound], the IC50 ([1]; Homo sapiens) was 1370 ± 450 nM and the “less cytotoxicity compared with the AuPhos compounds (Table 1)” value ([1]; MDA-MB-231) was roughly 6 times.
In the case of `Cl.[Cl][Au-]1([c]2ccccc2Nc2ccccn2)[P+](c2ccccc2)(c2ccccc2)c2ccccc2[P+]1(c1ccccc1)c1ccccc1` [AuPhos-82, (2-anilinopyridine)[1,2-Bis(diphenylphosphino)benzene]gold(III) Dichloride], the IC50 [1] is reported as 220 ± 200 nM, the IC50 [2] is reported as 340 ± 40 nM and the IC50 [3] is reported as 1040 ± 170 nM. It also gave an IC50 [4] of 850 ± 60 nM.
With `Cl.[Cl][Au-]1([c]2ccccc2Cc2ccccn2)[P+](c2ccccc2)(c2ccccc2)c2ccccc2[P+]1(c1ccccc1)c1ccccc1` [AuPhos-84, (2-benzylpyridine)[1,2-Bis(diphenylphosphino)benzene]gold(III) Dichloride] the IC50 [1] was 240 ± 160 nM, the IC50 [2] was 250 ± 60 nM and the IC50 [3] was 760 ± 150 nM. For the same compound, the IC50 [4] was 1240 ± 140 nM.
`Cl.O=C(c1ccccn1)c1cccc[c]1[Au-]1([Cl])[P+](c2ccccc2)(c2ccccc2)c2ccccc2[P+]1(c1ccccc1)c1ccccc1` [AuPhos-85, (2-benzoylpyridine)[1,2-Bis(diphenylphosphino)benzene]gold(I) Dichloride] showed an IC50 [1] of 260 ± 60 nM, an IC50 [2] of 150 ± 30 nM and an IC50 [3] of 340 ± 70 nM. It also gave an IC50 [4] of 640 ± 110 nM.
`Cl.[Cl][Au-]1([c]2cccc3ccc4cccnc4c23)[P+](c2ccccc2)(c2ccccc2)c2ccccc2[P+]1(c1ccccc1)c1ccccc1` [AuPhos-86, (benzo[h]quinoline)[1,2-Bis(diphenylphosphino)benzene]gold(III) Dichloride] showed an IC50 [1] of 290 ± 40 nM, an IC50 [2] of 330 ± 40 nM and an IC50 [3] of 340 ± 70 nM. The IC50 [4] was 820 ± 440 nM.
With `Cc1ccc(-c2ccccn2)[c]([Au-]2([Cl])[P+](c3ccccc3)(c3ccccc3)c3ccccc3[P+]2(c2ccccc2)c2ccccc2)c1.Cl` [AuPhos-87, (2-(p-tolyl)pyridine)[1,2-Bis(diphenylphosphino)benzene]gold(III) Dichloride] the IC50 [1] was 450 ± 190 nM, the IC50 [2] was 180 ± 40 nM and the IC50 [3] was 710 ± 90 nM. It also gave an IC50 [4] of 820 ± 760 nM.
`Cl.O=Cc1ccc(-c2ccccn2)[c]([Au-]2([Cl])[P+](c3ccccc3)(c3ccccc3)c3ccccc3[P+]2(c2ccccc2)c2ccccc2)c1` [AuPhos-88, (4-(2-pyridyl)benzaldehyde)[1,2-Bis(diphenylphosphino)benzene]gold(III) Dichloride] gave an IC50 [1] of 370 ± 210 nM, an IC50 [2] of 270 ± 20 nM and an IC50 [3] of 400 ± 30 nM. It also gave an IC50 [4] of 850 ± 70 nM.
For `N.N.[Cl][Pt][Cl]` [cisplatin, reference compound], the “tumor inhibition compared with the control group” value ([5]; AuPhos-89 10 mg kg−1 IP, cisplatin 3 mg kg−1 IP) was “significant tumor inhibition” and the tumor volume ([5]; six treatments, thrice a week, IP, AuPhos-89 10 mg kg−1, cisplatin 3 mg/kg, versus vehicle control) was “comparable results to AuPhos-89 treatment”.
In the case of `OO` [hydrogen peroxide, reference compound], the “apoptosis, positive control” value [6] is reported as “significant apoptosis”.
With “(2-phenoxypyridine)[1,2-Bis(diphenylphosphino) benzene]gold(III) Dichloride [AuPhos-83]” the IC50 [1] was 220 ± 70 nM, the IC50 [2] was 220 ± 10 nM and the IC50 [3] was 270 ± 60 nM. It also gave an IC50 [4] of 890 ± 140 nM.

Reference: patent US20230357292A1, “MULTI-COORDINATE GOLD-PHOSPHINE COMPOUNDS AND METHOD OF USE” (University of Kentucky Research Foundation, priority 2020, published 2023)
